Source: patent US11643438B2, “Antimicrobial peptides and methods of use” (priority 2018, dated 2023)
“Also recorded” adds a separate entry of the source. *1 amine or outer side, *2 acyl side, *3 side chain or, on linkers, in order; H or OH if unused. Where a SMILES comes first, the peptide text is derived from it. [ ]: non-standard residue; d: D form. X2 = CC[C@H](C)C[C@H](C)C[C@H](C)C[C@H](N[*:1])C(=O)[*:2]; X1 = CC[C@@H](C)[C@@H](O[*:1])C(=O)[*:2]; NMeVal(β-OH) = CN[C@H](C(=O)O)C(C)(C)O; aIle = CC[C@@H](C)[C@H](N)C(=O)O; NMeV = CN[C@H](C(=O)O)C(C)C; Sar = CNCC(=O)O

tested on: C. albicans SC5314 Flu^R; experiment: Ex vivo model of fungal keratitis (porcine cornea); set-up: species or system Candida albicans

SMILES	antifungal activity (fungal growth/infection), in words
CC[C@H](C)C[C@H](C)C[C@H](C)C[C@@H]1NC(=O)[C@H](C(C)C)N(C)C(=O)[C@@H]([C@H](C)CC)OC(=O)[C@H](C(C)(C)O)N(C)C(=O)[C@H](CC(C)C)NC(=O)[C@H](C(C)C)N(C)C(=O)[C@H]([C@H](C)CC)NC(=O)[C@@H]2CCCN2C(=O)CN(C)C1=O [Compound 1, persephacin] (cyclo(L[NMeVal(β-OH)][X1][NMeV][X2][Sar]P[aIle][NMeV]))	inhibited the growth; also recorded: eliminated the fungus
OC(Cn1cncn1)(Cn1cncn1)c1ccc(F)cc1F [Fluconazole, fluconazole]	did not inhibit the growth; also recorded: unable to inhibit the fungus
C[C@@H]1C/C=C/C=C/C=C/C=C/[C@H](O[C@@H]2O[C@H](C)[C@@H](O)[C@H](N)[C@@H]2O)C[C@@H]2O[C@](O)(C[C@@H](O)C[C@H]3O[C@@H]3/C=C/C(=O)O1)C[C@H](O)[C@H]2C(=O)O [Natamycin, natamycin]	inhibited the growth; also recorded: reduced the fungal burden
